Experimental data as given in PubChem BioAssay AID1996.
Values after ≈ are worked out from the molar mass of the structure shown.

Conditions: buffer; pH 7.4; 200.0 µM

Compound | solubility kinetic
COc1cscc1C(N)=O | 19.4 µg/mL (≈ 123 µM)
S=c1[nH]cc(-c2ccccc2)[nH]1 | > 26.4 µg/mL
CCOc1ccc(NC(=O)C(CC(=O)O)Cc2ccc(Br)cc2)cc1 (stereo not given) | 50 µg/mL (≈ 123 µM)
CC(C)Nc1nc(Cl)nc(NC2CCCCC2)n1 | 2.7 µg/mL (≈ 10 µM)
COc1ccnc2c1c(=O)n(Cc1cccc(Cl)c1)c(=O)n2C | 9.8 µg/mL (≈ 29.5 µM)
NC(=O)c1ccc(NC(=O)COC(=O)CC2CC3CCC2C3)cc1 (stereo not given) | 13 µg/mL (≈ 39.3 µM)
N#Cc1cccc(C(=O)Nc2cc(S(=O)(=O)N3CCOCC3)ccc2N2CCCC2)c1 | > 66.1 µg/mL
COc1ccc(S(=O)(=O)Nc2cc(C)on2)cc1NC(C)=O | > 48.8 µg/mL
CCOc1ccc(OCCC(=O)Nc2ccc(F)cc2C)cc1 | 5 µg/mL (≈ 15.8 µM)
O=C(/C=C/c1ccc([N+](=O)[O-])s1)N1CCCCC1 | > 39.9 µg/mL
CCOC(=O)c1c(C)[nH]c(C(=O)NCCN2CCOCC2)c1C | > 48.5 µg/mL
Cc1nc(SCc2ccc(C(=O)O)cc2)c2c(C)c(C)sc2n1 | 49.5 µg/mL (≈ 144 µM)
COc1cccc(-c2noc(CCCC(=O)N3CCOCC3)n2)c1 | > 49.7 µg/mL
O=C(NCc1ccc(Cl)cc1)c1csc(-c2cccnc2)n1 | 37.9 µg/mL (≈ 115 µM)
Cc1cc(OCCCn2ccnc2)ccc1[N+](=O)[O-].O=C(O)C(=O)O | 36.8 µg/mL
CC(C)(Oc1ccc(Cl)cc1)C(=O)NC1CCCCC1 | 3.9 µg/mL (≈ 13.2 µM)
Cc1c(C(=O)NC(=S)Nc2cccnc2)cccc1[N+](=O)[O-] | 0.9 µg/mL (≈ 2.85 µM)
Cc1ccc(-c2ocnc2C(=O)N2CCOCC2)cc1 | > 40.8 µg/mL
COc1ccc2[nH]c(=O)c(CN(C)C(=O)c3cccs3)cc2c1 | 12.4 µg/mL (≈ 37.8 µM)
Cc1ccc(CNC(=O)C2CSC3(C)CCC(=O)N23)cc1 (stereo not given) | > 45.7 µg/mL
COc1ccc(C(=O)Nc2ccc3ccccc3n2)c(OC)c1OC | 2.2 µg/mL (≈ 6.5 µM)
O=Cc1ccccc1OCCCOc1cccc2cccnc12 | 9.7 µg/mL (≈ 31.6 µM)
O=C(NC(=O)N1CCCCC1)c1ccccc1 | 31.7 µg/mL (≈ 136 µM)
COc1cc(CNCC2CCCO2)ccc1OCC(N)=O.Cl (stereo not given) | 49 µg/mL

Compound | solubility kinetic
C=CCNC(=O)c1cc(-c2cccnc2)nc2ccccc12 | > 43.4 µg/mL
CC(C(=O)Nc1ccc(C#N)cc1)N(C)CC(=O)Nc1cccc(F)c1 (stereo not given) | 5.9 µg/mL (≈ 16.6 µM)
CC(NC(=O)COC(=O)c1nc(Cl)ccc1Cl)c1ccccc1 (stereo not given) | > 53 µg/mL
Cc1c(Cl)cnc(NC(=O)COC(=O)C2CCCC2)c1Cl | > 49.7 µg/mL
Cc1ccc(S(=O)(=O)Nc2ccsc2C#N)cc1 | > 41.8 µg/mL
CCS(=O)(=O)Nc1cccc(-c2nc3cccnc3s2)c1 | 45.4 µg/mL (≈ 142 µM)
CN(CC(=O)Nc1ccccc1Cl)C(=O)c1ccc(Cl)c(S(=O)(=O)N2CCCCCC2)c1 | 21.6 µg/mL (≈ 43.3 µM)
N#CC1=C(N)Oc2c(ccc3cccnc23)C1c1ccccc1 (stereo not given) | 9.8 µg/mL (≈ 32.7 µM)
CCCNC(=O)c1ccc2c(c1)ncn2-c1cc(C)cc(C)c1 | 38.4 µg/mL (≈ 125 µM)
O=C(Nc1cc(Cl)cc(Cl)c1)c1ccno1 | 8.4 µg/mL (≈ 32.7 µM)
[O-]/[N+](=C\c1ccco1)c1ccc(Cl)cc1 | 32.5 µg/mL (≈ 147 µM)
CCOC(=O)c1c(C)[nH]c(C(=O)NCc2ccccn2)c1C | 15.5 µg/mL (≈ 51.4 µM)
COc1cccc2c1CCc1c-2nc2ccccc2c1C(=O)O | > 45.8 µg/mL
Cc1ccc(NC(=O)CCOc2ccccc2)c(C)c1 | 20.2 µg/mL (≈ 75 µM)
CCOC(=O)c1cc(S(=O)(=O)N2CCOCC2)cn1C | 45.1 µg/mL (≈ 149 µM)
CSc1ncccc1C(=O)Nc1cccc(S(=O)(=O)N2CCCCCC2)c1 | 11.2 µg/mL (≈ 27.6 µM)
COC(=O)c1sccc1NC(=O)c1cccc(F)c1 | < 0.6 µg/mL
COc1ccc(C(=O)Nc2ccc(NC(=O)C3CC3)cn2)cc1 | 5.8 µg/mL (≈ 18.6 µM)
CCC(C)n1c(O)c(C=NCCN2CCOCC2)c(=O)[nH]c1=S (stereo not given) | > 51.1 µg/mL
Cc1cccc(N2C(=O)CN(Cc3ccccc3)C2=S)c1 | 10 µg/mL (≈ 33.7 µM)
O=c1c2[nH]c3cccc(Cl)c3c2ncn1Cc1ccco1 | 0.5 µg/mL (≈ 1.67 µM)
O=C(COC(=O)c1ccco1)Nc1cc(S(=O)(=O)N2CCCCC2)ccc1Cl | 6.7 µg/mL (≈ 15.7 µM)
Cc1ccc(S(=O)(=O)N2CCCCC2)cc1C(=O)OCC(=O)N1c2ccccc2NC(=O)C1(C)C | 3.2 µg/mL (≈ 6.41 µM)
CSc1ccc(C2Nc3cccc4cccc(c34)N2)cc1 | 2.4 µg/mL (≈ 8.21 µM)

Compound | solubility kinetic
COC(=O)C1CCN(Cc2nnc(-c3ccccc3)o2)CC1 | > 45.2 µg/mL
COc1ccc(NC(=O)COc2ccccc2)cc1Cl | 34 µg/mL (≈ 117 µM)
Cc1[nH]c2ccccc2c1C(=O)C(=O)Nc1ccc2c(c1)OCCO2 | 1.9 µg/mL (≈ 5.65 µM)
COc1ccc2nc(C)cc(NCCN3CCOCC3)c2c1 | 42.3 µg/mL (≈ 140 µM)
CCC(C)NC(=O)C1CCN(S(=O)(=O)N2CCOCC2)CC1 (stereo not given) | > 50 µg/mL
O=C1CN(C(=O)COC(=O)CCc2ccccc2O)c2ccccc2N1 | > 53.2 µg/mL
Cc1cc(NC(=O)C(Cl)c2ccccc2)no1 (stereo not given) | > 37.6 µg/mL
CN(C)C(CNC(=O)c1ccc(C(F)(F)F)cc1)c1ccco1 (stereo not given) | > 48.9 µg/mL
O=C(COC(=O)CCC(=O)c1ccc(Cl)cc1)NCCc1ccccc1 | 5.7 µg/mL (≈ 15.2 µM)
CSc1ncc(Cl)c(C(=O)Nc2cccnc2)n1 | > 42.1 µg/mL
COc1ccccc1OC(C)C(=O)Nc1ccc2c(c1)OCCO2 (stereo not given) | > 49.4 µg/mL
CC(NCc1ccccc1O)c1ccccc1 (stereo not given) | > 34.1 µg/mL
C=Cc1cccc(NC(=O)c2ccc(NC(=O)c3ccco3)cc2)c1 | 3.1 µg/mL (≈ 9.33 µM)
CSc1cccc(NC(C)C(=O)NCc2ccccc2)c1 (stereo not given) | 37.4 µg/mL (≈ 124 µM)
CNc1snc(C)c1C(=O)OC(C)C(=O)Nc1cccc(C)c1 (stereo not given) | 4.8 µg/mL (≈ 14.4 µM)
CC(=O)c1cccc(NC(=O)CCC(=O)Oc2ccc(C)cc2)c1 | > 48.8 µg/mL
Cc1ccc(C)c(C(=O)Nc2nc3ccccc3[nH]2)c1 | 0.4 µg/mL (≈ 1.51 µM)
COc1ccc(S(=O)(=O)NCc2ccccc2)cc1Br | 4.3 µg/mL (≈ 12.1 µM)
Cc1ccccc1CC(=O)Nc1ccon1 | 30.3 µg/mL (≈ 140 µM)
COc1ccccc1C(=O)NCCNC(=O)c1ccc(C)nc1 | 45.7 µg/mL (≈ 146 µM)
N#Cc1ccc(-c2nc3ccc(Br)cc3c(=O)n2O)cc1 | 18.1 µg/mL (≈ 52.9 µM)
COc1cc(OC)cc(C(=O)Nc2ccc(Nc3ccccc3)cc2)c1 | 2.5 µg/mL (≈ 7.18 µM)
COC(=O)Cc1ccc(NC(=S)Nc2cccc(C)n2)cc1 | 1.6 µg/mL (≈ 5.07 µM)
CCOc1ccc(N(C)Cc2cc(=O)oc3ccc(OC)cc23)cc1 | 8.1 µg/mL (≈ 23.9 µM)

Compound | solubility kinetic
Cc1cnc(NC(=O)c2ccc(OCC3CCCO3)cc2)s1 (stereo not given) | 7.8 µg/mL (≈ 24.5 µM)
Cc1cccc2sc(NC(=O)CCNC(=O)c3ccco3)nc12 | 5.6 µg/mL (≈ 17 µM)
COc1ccccc1CN(C)C(=O)c1cnc(C)cn1 | > 40.7 µg/mL
CN(C(=O)c1ccco1)c1nc(-c2ccc(F)cc2)cs1 | < 0.3 µg/mL
CNC(=O)/C(C#N)=C/c1ccc(OCCOc2ccccc2)cc1 | 2.3 µg/mL (≈ 7.13 µM)
Oc1cccc(/C=C/c2ccc3cccc(O)c3n2)c1 | 2.3 µg/mL (≈ 8.74 µM)
O=C(NCC(O)c1ccccc1)c1ccccc1 (stereo not given) | > 36.2 µg/mL
Cc1cccnc1NC(=O)c1ccc(Cl)c(S(=O)(=O)N2CCCC2)c1 | > 57 µg/mL
CC1(C(=O)Nc2ccc(S(=O)(=O)Nc3ncccn3)cc2)CCCC1 | > 54.1 µg/mL
CCCc1cc(=O)[nH]c(SCC(=O)N2CCc3ccccc32)n1 | 7.6 µg/mL (≈ 23.1 µM)
S=c1[nH]ccn1-c1ccc(Cl)cc1 | 29.2 µg/mL (≈ 139 µM)
COc1ccc(C(=O)NCCCn2ccnc2)cc1[N+](=O)[O-] | > 45.6 µg/mL
Cc1ccc(NC(=O)CCNC(=O)c2ccccc2)cc1F | 2.9 µg/mL (≈ 9.66 µM)
NS(=O)(=O)c1ccc(Sc2ccc3ccccc3c2)nc1 | 2.1 µg/mL (≈ 6.64 µM)
C=CCOC(=O)/C(=C/c1cccnc1)NC(=O)c1ccccc1 | 43.4 µg/mL (≈ 141 µM)
O=S(=O)(c1cccs1)N1CCN(c2ccccc2F)CC1 | 15.6 µg/mL (≈ 47.8 µM)
CC(=O)c1c(C)[nH]c(C(=O)OCc2cc(-c3ccco3)on2)c1C | 2.5 µg/mL (≈ 7.61 µM)
Cc1[nH]c(SCC(=O)c2c(N)n(C)c(=O)n(C)c2=O)nc1Cc1ccccc1 | > 59.9 µg/mL
CCS(=O)(=O)c1ccc(O)c(NC(=O)/C=C/c2ccccc2)c1 | > 49.7 µg/mL
Cc1csc(NC(=O)c2ccc(=O)[nH]c2)n1 | > 35.3 µg/mL
Cc1cccc(C(=O)N2CCCC(c3nc(-c4ccc(C)o4)no3)C2)c1 (stereo not given) | 47.7 µg/mL (≈ 136 µM)
N#Cc1ccc(OCC(=O)NC2=NCCS2)cc1 | > 39.2 µg/mL
OC(COc1ccc(Cl)cc1)CN1CCN(c2ccccn2)CC1 (stereo not given) | 33.8 µg/mL (≈ 97.2 µM)
COc1ccc(NC(=O)CN2C(=O)CSC2=O)cc1 | > 42 µg/mL

Compound | solubility kinetic
Cn1cccc1/C=C(\C#N)c1ccccc1 | 15.4 µg/mL (≈ 73.9 µM)
Cc1ccccc1C(=O)c1cccn1CC(=O)N1CCCCC1 | > 46.6 µg/mL
CC(C)CCNCC(O)CON=C1c2ccccc2-c2ccccc21 (stereo not given) | 47.4 µg/mL (≈ 140 µM)
O=C(NC1CC1)c1ccc(-n2cccc2)cc1 | 17.4 µg/mL (≈ 76.9 µM)
COCCCNC(=S)Nc1ccc(C)cc1[N+](=O)[O-] | 40.1 µg/mL (≈ 142 µM)
CC(C)N1CC(COc2ccc(Cl)cc2Cl)OC1=O (stereo not given) | > 45.6 µg/mL
[O-][n+]1ccccc1/C=C/c1ccccc1 | > 29.6 µg/mL
O=C(COC(=O)Cc1ccsc1)Nc1ccc(Cl)cc1F | 47.7 µg/mL (≈ 146 µM)
COc1ccccc1-c1nc2ccccc2c(=O)n1O | > 40.2 µg/mL
COc1ccc(OC)c(NC(=O)COC(=O)COc2ccc(Nc3ccccc3)cc2)c1 | 15.7 µg/mL (≈ 36 µM)
NCCCCCC(=O)O | 0.9 µg/mL (≈ 6.86 µM)
O=C(Nc1nc(-c2ccc(Br)cc2)cs1)c1cccnc1 | < 0.3 µg/mL
Cc1cc(C)c2c(CC(=O)O)c(C)[nH]c2c1 | 28.5 µg/mL (≈ 131 µM)
CC(=O)Nc1ccc(NC(=O)C(C)OC(=O)C2CCC2)cc1 (stereo not given) | > 45.7 µg/mL
COC(=O)c1cccc(NC(=O)c2cccc([N+](=O)[O-])c2)c1 | 3.8 µg/mL (≈ 12.7 µM)
O=C(CCn1c(=S)[nH]c2ccccc2c1=O)N1CCCCC1 | 9.1 µg/mL (≈ 28.7 µM)
O=C(NCC(O)c1ccc2ccccc2c1)c1c(F)cccc1F (stereo not given) | 41.9 µg/mL (≈ 128 µM)
COc1cccc(OCCNc2ccc([N+](=O)[O-])cn2)c1 | 4.7 µg/mL (≈ 16.2 µM)
NS(=O)(=O)c1cccc(Nc2nc3ccccc3nc2NS(=O)(=O)c2ccc(Cl)cc2)c1 | 7.4 µg/mL (≈ 15.1 µM)
Cc1ccc(C(=O)N2CCC(Cc3ccccc3)CC2)cc1[N+](=O)[O-] | 10.3 µg/mL (≈ 30.4 µM)
O=C1CSC(=S)N1c1ccc(O)cc1 | 28.1 µg/mL (≈ 125 µM)
O=C(NCCN1CCN(c2ccc([N+](=O)[O-])cc2)CC1)NCc1ccccc1 | > 57.5 µg/mL
O=C(CN1CCCc2ccccc21)Nc1ccc(F)cc1[N+](=O)[O-] | < 0.2 µg/mL
Cc1cc2nccc(-c3ccncc3)n2n1 | > 31.5 µg/mL
